From US20150017673A1, “COMPOSITIONS AND METHODS FOR DRUG-SENSITIZATION OR INHIBITION OF A CANCER CELL” (priority 2012, published 2015)
pIC50: −log10 of the molar value. Like-named read-outs stand apart in the source and are kept apart here. Numbered stars: 1 amine (or outer) side, 2 acyl side, 3 side chain; on linkers, the order of the positions; unused ones are H or OH. Bridge positions count the residues as written; N and C are the ends. Square brackets hold non-standard residues; d marks the D form. Peptide text beside a SMILES is read from it. I, II: the chains in the order shown. Actinocin(9to1) = Cc1c2oc3c(C)ccc(C(=O)[*:1])c3nc-2c(C(=O)[*:2])c(N)c1=O; NMeV = CN[C@H](C(=O)O)C(C)C; Sar = CNCC(=O)O

Assays:
[1] = system: T lymphoblastoid leukemia MOLT-4; assay: Cell growth assay on MOLT-4 cells; format: cell-based
Description: (§1) Compositions were tested on CHOP-resistant G3 NHL cells that had been cultivated in RPMI medium for five days. Prior to assay, the cells were counted by haemocytometer and cell concentration standardized to 625,000 cells/ml. Test drugs were solubilized in 100% DMSO and then diluted to final assay concentration with 0.1M phosphate buffered saline (PBS) and a final DMSO concentration of 0.5%. Cells were added to assay plates containing the test drugs (rifabutin+148 ng/ml, 74 ng/ml, 37 ng/ml, or 0 ng/ml doxorubicin) and allowed to incubate for 96 hours at 37° C. and 5% CO2. The metabolic dye rezasurin was added to the wells of the assay plate at a final concentration of 20 μg/ml and the plates were incubated for an additional 24 hours. The plates were then read in a BMG Polarstar plate reader at wavelength (573-605) and the data plotted as OD versus increasing dilutions (i.e. decreasing total amounts) of rifabutin derivative concentration.
(§2) Additional cell lines used include: ovarian cancer OVCAR-8, T lymphoblastoid leukemia MOLT-4, dexamethasone-resistant multiple myeloma MM.1R, myeloid leukemia cells HL-60, osteosarcoma cells U-2 OS, and myeloma RPMI 8226.

[2] = system: multi-drug resistant sarcoma cell line MES-SA-Dx5; assay: Cell growth assay on MES-SA-Dx5 cells; format: cell-based; settings: for Magnitude of potentiation in combination with doxorubicin: MES-SA-Dx5, uterus sarcoma
Description: as §1
(§3) In these experiments, the following cell lines were used: CHOP-resistant NHL cell line G3, CHOP-sensitive NHL cell line CRL2631, the multi-drug resistant sarcoma cell line MES-SA-Dx5; multi-drug-resistant breast cancer cell line MDA-MB-231, multi-drug resistant ovarian carcinoma cell line SK-OV3, multi-drug resistant ovarian cancer cell line NCI/ADR-RES, drug-sensitive ovarian cancer cell line OVCAR-5, and multi-drug resistant ovarian cancer cell line OVCAR-3.
as §2

[3] = system: dexamethasone-resistant multiple myeloma MM.1R; assay: Cell growth assay on MM.1R cells; format: cell-based; settings: for pIC50: therapeutic drug alone, read-out: IC50; for IC50: therapeutic drug with Rifabutin, read-out: IC50 (μM) with Rifabutin; for Fold increase in potency: with vs without Rifabutin
Description: as §1, §2

[4] = system: multi-drug resistant ovarian cancer cell line OVCAR-3; assay: Cell growth assay on OVCAR-3 cells; format: cell-based
Description: as §1
as §3, with “OVCAR-3. […]” for “OVCAR-3.”

[5] = system: multi-drug resistant ovarian carcinoma cell line SK-OV3; assay: Cell growth assay on SK-OV3 cells; format: cell-based, human; settings: SK-OV3, ovarian carcinoma
Description: as §1
as §3, with “OVCAR-3. […]” for “OVCAR-3.”

lymphoma cell line G3 = assay: Cell growth assay (resazurin fluorescence) on CHOP-resistant G3 NHL cells; format: cell-based, human; settings: for Magnitude of potentiation in combination with doxorubicin: G3, lymphoma B cells; for pIC50: analog alone, read-out: IC50; for pIC50 / IC50 / Fold increase in potency over DOX alone: lymphoma cell line G3; for IC50: with 1 μM doxorubicin, read-out: IC50 (μM) with doxorubicin (1 μM)
Description: as §1

[6] = system: multi-drug resistant ovarian cancer cell line NCI/ADR-RES; assay: Cell growth assay on NCI/ADR-RES cells; format: cell-based; settings: NCI/ADR-RES, ovarian carcinoma
Description: as §1, §3, §2

[7] = system: G3 CHOP-resistant NHL cells; settings: fourth study
Description: In a first efficacy study, 6-8 week old female SCID mice (7 mice per treatment arm) were injected subcutaneously on both flanks with 1×10^7 G3 CHOP-resistant NHL cells. Once palpable tumors (about […] size) appeared, therapies (CHOP or CHOP+rifabutin) were started. CHOP was administered at the maximum tolerated dose (cyclophosphamide, 40 mg/kg i.v.; doxorubicin, 3.3 mg/kg i.v.; vincristine, 0.5 mg/kg i.v.; and prednisone, 0.2 mg/kg orally daily for 5 d) weekly for 3 weeks. Rifabutin in an amount of 100 mg/kg was administered on the day of each CHOP treatment and 24-hours later by gavage. Mouse body weight and tumor size were monitored every two days and tumor size measured by caliper. The tumor volume formula (L*W*W)/2 was used to calculate tumor mass.
A second efficacy study was conducted where mice were treated before the appearance of palpable tumors. In that experiment, one week after transplantation of CHOP-resistant G3 cells, one group (7 mice) was treated with CHOP-only and a second group (8 mice) was treated with CHOP+rifabutin.
A third study was conducted in which mice injected with CHOP-resistant G3 cells received reduced dosages of CHOP in combination with 33 mg/kg rifabutin. CHOP+rifabutin was administered weekly beginning one week post-inoculation. Control mice were given no CHOP or rifabutin.
SCID mice were injected with CHOP-resistant G3 cells in the same manner as the first efficacy study above. Treatments began 2 weeks post-inoculation and were administered twice weekly.

[8] = system: drug-sensitive ovarian cancer cell line OVCAR-5; assay: Cell growth assay on OVCAR-5 cells; format: cell-based; settings: for Magnitude of potentiation in combination with doxorubicin: OVCAR-5, ovarian carcinoma
Description: as §1, §3, §2

[9] = system: primary human fibroblasts; settings: with and without 2 uM Dox
[10] = system: ROS in ADR-RES ovarian cells; assay: Intracellular ROS (CellROX, flow cytometry) in ADR-RES cells; format: cell-based; settings: 10 uM, 2 hrs
From the text: (§4) Cells were then stained with the fluorescent ROS indicator, CellROX, and subjected to flow cytometry to quantitate total intracellular ROS.

calcium in G3 cells = assay: Calcium mobilization (Fluo-4AM, flow cytometry); format: cell-based, human; settings: Dox-resistant cells (G3R, 10R, WSUR), 10 uM, 2 hrs, FIG. 41B/41C
Description: MDR/P-gp activity is closely associated with calcium status in the cell, so calcium modulators were tested for effects on ROS. […] Relatively Dox-sensitive lymphoma (CRL2631, 10S, WSU) and ovarian carcinoma (OVCAR8) and more Dox-resistant lymphoma (G3R,10R, WSUR) and ovarian carcinoma (ADR) were treated with 10 uM […] for 2 hrs. […] Cells were co-stained with the cell-permeable red fluorescent ROS indicator, CellROX, and cell-permeable green fluorescent calcium indicator, Fluo-4AM, and then subjected to flow cytometry to quantitate changes in ROS and calcium levels.
(§5) All samples were analyzed at the same time in flow cytometry.

ROS in G3 lymphoma cells = assay: Intracellular ROS (CellROX, flow cytometry) in G3 cells; format: cell-based, human; settings: 10 uM, 2 hrs
Description: as §4
The electron transport chain (ETC) is known to be a primary generator of ROS in the cell. Most of the ROS is generated by Complexes I and III of the ETC Inhibition of Complex I results in electrons piling up and leaking to react with oxygen to produce ROS.
as §5

[11] = system: ROS in OVCAR8 ovarian cells; assay: Intracellular ROS (CellROX, flow cytometry) in OVCAR8 cells; format: cell-based; settings: 10 uM, 2 hrs, degree much less than in resistant lines
From the text: as §4

SMILES: Cc1c2oc3c(C)ccc(C(=O)N[C@@H]4C(=O)N[C@H](C(C)C)C(=O)N5CCC[C@H]5C(=O)N(C)CC(=O)N(C)[C@@H](C(C)C)C(=O)O[C@@H]4C)c3nc-2c(C(=O)N[C@@H]2C(=O)N[C@H](C(C)C)C(=O)N3CCC[C@H]3C(=O)N(C)CC(=O)N(C)[C@@H](C(C)C)C(=O)O[C@@H]2C)c(N)c1=O [Actinomycin D, actinomycin D] (I: T[dV]P[Sar][NMeV] / II: T[dV]P[Sar][NMeV]; ester I:1-I:C, II:1-II:C; linker I:N-II:N via Actinocin(9to1))
- pIC50 ([1]; therapeutic drug alone, read-out: IC50): 7.40
- IC50 ([1]; therapeutic drug with Rifabutin, read-out: IC50 (μM) with Rifabutin): < 0.008 µM
- Fold increase in potency ([1]; with vs without Rifabutin): >5 fold
- pIC50 ([2]; therapeutic drug alone, MES-SA-Dx5, read-out: IC50): 7.52
- IC50 ([2]; therapeutic drug with Rifabutin, MES-SA-Dx5, read-out: IC50 (μM) with Rifabutin): 0.01 µM
- Fold increase in potency ([2]; with vs without Rifabutin, MES-SA-Dx5): 3 fold

SMILES: CC[C@@]1(O)C(=O)OCc2c1cc1n(c2=O)Cc2cc3ccccc3nc2-1 [Camptothecin, camptothecin]
- pIC50 [3]: 5.95
- IC50 [3]: 0.3 µM
- Fold increase in potency [3]: 3.8 fold

SMILES: CC1=CC(=O)c2ccccc2C1=O [Menadione, menadione]
- pIC50 [3]: 5.40
- IC50 [3]: 2 µM
- Fold increase in potency [3]: 2 fold
- pIC50 ([4]; Homo sapiens, therapeutic drug alone, OVCAR-3, read-out: IC50): < 4.49
- IC50 ([4]; Homo sapiens, therapeutic drug with Rifabutin, OVCAR-3, read-out: IC50 (μM) with Rifabutin): 10.9 µM
- Fold increase in potency ([4]; with vs without Rifabutin, OVCAR-3): >2.9 fold

SMILES: COC1C=COC2(C)Oc3c(C)c(O)c4c(c3C2=N)C2=NC3(CCN(C(=O)OCC(C)C)CC3)NC2=C(NC(=O)C(C)=CC=CC(C)C(O)C(C)C(O)C(C)C(OC(C)=O)C1C)C4=O (stereo not drawn) [RTI-81, 11-deoxy-11-imino-4-deoxy-3,4[2-spiro-[1-(isobutyloxycarbonyl)-piperidin-4-yl]]-(1H)-imidazo-(2,5-dihydro)rifamycin S]
- Magnitude of potentiation in combination with doxorubicin [5]: +++ (potentiation greater than 5 fold increase)
- Magnitude of potentiation in combination with doxorubicin (lymphoma cell line G3): +++ (potentiation greater than 5 fold increase)
- pIC50 (lymphoma cell line G3): < 4.19
- IC50 (lymphoma cell line G3): 0.3 µM
- Magnitude of potentiation in combination with doxorubicin [2]: ++ (potentiation between 2.1 to 5 fold increase)
- Magnitude of potentiation in combination with doxorubicin [6]: + (potentiation between 1.2 to 2.0 fold increase)
- longer life than doxorubicin only ([7]; DOX 3.3 mg/kg iv + RTI-81 10 mg/kg by gavage twice weekly): 27%
- mean lifespan ([7]; doxorubicin+RTI-81 group): 42.6
- median lifespan ([7]; doxorubicin+RTI-81 group): 42

SMILES: CO[C@H]1/C=C/O[C@@]2(C)Oc3c(C)c(O)c4c(c3C2O)C2=NC3(CCN(C(=O)OCC(C)C)CC3)NC2=C(NC(=O)/C(C)=C\C=C\[C@H](C)[C@H](O)[C@@H](C)[C@@H](O)[C@@H](C)[C@H](OC(C)=O)[C@@H]1C)C4=O (stereo partly drawn) [RTI-175, 11-deoxy-11-hydroxy-4-deoxy-3,4[2-spiro-[1-(isobutyloxycarbonyl)-piperidin-4-yl]]-(1H)-imidazo-(2,5-dihydro)rifamycin S]
- Magnitude of potentiation in combination with doxorubicin [5]: +++ (potentiation greater than 5 fold increase)
- Magnitude of potentiation in combination with doxorubicin (lymphoma cell line G3): ++ (potentiation between 2.1 to 5 fold increase)
- Fold increase in potency over DOX alone (lymphoma cell line G3): 2.2 fold
- Magnitude of potentiation in combination with doxorubicin [2]: + (potentiation between 1.2 to 2.0 fold increase)
- Magnitude of potentiation in combination with doxorubicin [6]: ++ (potentiation between 2.1 to 5 fold increase)
- Magnitude of potentiation in combination with doxorubicin [8]: ++ (potentiation between 2.1 to 5 fold increase)
- Magnitude of potentiation in combination with doxorubicin ([4]; OVCAR-3, ovarian carcinoma): + (potentiation between 1.2 to 2.0 fold increase)

SMILES: COC1C=COC2(C)Oc3c(C)c(O)c4c(c3C2N)C2=NC3(CCN(C(=O)OCC(C)C)CC3)NC2=C(NC(=O)C(C)=CC=CC(C)C(O)C(C)C(O)C(C)C(OC(C)=O)C1C)C4=O (stereo not drawn) [RTI-176, 11-deoxy-11-amino-4-deoxy-3,4[2-spiro-[1-(isobutyloxycarbonyl)-piperidin-4-yl]]-(1H)-imidazo-(2,5-dihydro)rifamycin S]
- Magnitude of potentiation in combination with doxorubicin [5]: +++ (potentiation greater than 5 fold increase)
- Magnitude of potentiation in combination with doxorubicin (lymphoma cell line G3): +++ (potentiation greater than 5 fold increase)
- pIC50 (lymphoma cell line G3): < 4.19
- Fold increase in potency over DOX alone (lymphoma cell line G3): 5.2 fold
- IC50 (lymphoma cell line G3): 0.45 µM
- Magnitude of potentiation in combination with doxorubicin [8]: + (potentiation between 1.2 to 2.0 fold increase)
- comparative cytotoxicity to normal cells [9]: not toxic to normal cells

SMILES: CC(C)C[C@H](NC(=O)[C@H](Cc1ccccc1)NC(=O)c1cnccn1)B(O)O [Velcade, bortezomib]
- pIC50 ([8]; Homo sapiens, therapeutic drug alone, OVCAR-5, read-out: IC50): 6.77
- IC50 ([8]; Homo sapiens, therapeutic drug with Rifabutin, OVCAR-5, read-out: IC50 (μM) with Rifabutin): 0.08 µM
- Fold increase in potency ([8]; with vs without Rifabutin, OVCAR-5): 2.1 fold

SMILES: COc1cc2c(cc1OC)CN(CCc1ccc(NC(=O)c3cccc4c(=O)c5cccc(OC)c5[nH]c34)cc1)CC2 [elacridar]
- total intracellular ROS [10]: induced ROS
- calcium mobilization (calcium in G3 cells): induced calcium in a similar manner as RTI-79
- total intracellular ROS (ROS in G3 lymphoma cells): induced ROS
- total intracellular ROS [11]: induced ROS

SMILES: COC(=O)[C@H]1[C@H]2C[C@@H]3c4[nH]c5cc(OC)ccc5c4CCN3C[C@H]2C[C@@H](OC(=O)c2cc(OC)c(OC)c(OC)c2)[C@@H]1OC [reserpine]
- total intracellular ROS [10]: induced ROS
- total intracellular ROS (ROS in G3 lymphoma cells): induced ROS
- total intracellular ROS [11]: induced ROS
